{"source": "patent US20120021010A1", "about": "“ANTIPLATELET AGENT AND METHODS OF USING THE SAME” (University of Calcutta, priority 2010, published 2012)", "system": "platelets", "experiment": "ADP-induced platelet aggregation, chronolog optical aggregometry", "type": "cell-based, human", "conditions": "platelets of patient treated with clopidogrel; inset of FIG. 3C", "procedure": "In this example, platelet aggregation in the presence of SPIONs and various agonists was examined. The study was carried out using chronolog optical aggregometry.\nFIGS. 2A and 2B respectively represent aggregometric results in presence of the agonists arachidonic acid (0.5 mM) and ADP (10 μM). Arachidonic acid is the main target for the antiplatelet drug aspirin and ADP is the main target for the antiplatelet drug clopidogrel. […] Thus, SPIONs cause no change in ADP- and arachidonic acid-induced aggregation of platelets from normal healthy individuals. The 85% to 95% aggregation increase in FIG. 2B can be ignored as the fractional increase is insignificant.", "data": [{"smiles": "COC(=O)[C@H](c1ccccc1Cl)N1CCc2sccc2C1", "note": "[clopidogrel]", "values": [{"measurement": "ADP-induced platelet aggregation in a patient treated with clopidogrel", "result": "ADP cannot induce aggregation"}]}]}
